One test deals with Wheat embryogenic callus. As to the kind of experiment: Tissue culture of wheat embryogenic callus on W2 medium containing niacinamide. The format is cell-based. On the procedure: After the one day incubation the capacity of the transformed and control tissues to reduce 2,3,5-triphenyltetrazolium chloride (TTC) is measured e.g. by the following procedure which is modified from Towill and Mazur (supra): • incubate the tissues for 1 to 4 hours in K-phosphate buffer (pH 7.4) containing 10 mM TTC and 0.1% Tween20. […] The O.D. of the control extract is subtracted from the OD of the TTC-reacted extracts. In the above conditions 0.1 mM reduced TTC corresponds to an OD485 of 0.214 or OD545 of 1.025 (light path 1 cm). • the reducing capacity of the transformed plant line is compared to that of the control line. Wheat embryogenic callus was cultured on W2 medium (see Example 2).

Test [1] has as its system Brassica napus hypocotyl explants. As to the kind of experiment: Tissue culture of Brassica napus hypocotyl explants on A5 medium containing niacinamide. Type of test: cell-based. As for the experimental part: Hypocotyl explants of Brassica napus were obtained, cultured and transformed essentially as described by De Block et al, 1989, Plant Physiol. 914:694-701 except for the following modifications: • hypocotyl explants were precultured for 3 days on A2 medium (MS, 0.5 g/l Mes (pH 5.7), 1.2% glucose, 0.5% agarose, 1 mg/l 2,4-D, 0.25 mg/l naphthalene acetic acid (NAA), 1 mg/l 6-benzylaminopurine (BAP)), […] MS, 0.5 g/l Mes (pH 5.7), 1.2% glucose, 0.1 mg/l NAA, 0.75 mg/l BAP, 0.01 mg/l giberellinic acid (GA3) • selection medium A5 was 0.5 g/l Mes (pH 5.7), 1.2% glucose, 40 mg/l adenine.SO4, 0.5 g/l polyvinyl-polypyrrolidone (PVP), 0.5% agarose, 0.1 mg/l NAA, 0.75 mg/l BAP, 0.01 mg/l GA3, 250 mg/l carbenicillin, 250 mg/l triacillin, 5 mg/l AgNO3. • regeneration medium A6 was MS, 0.5 g/l Mes (pH 5.7), 2% sucrose, 40 mg/l adenine.SO4, 0.5 g/l PVP, 0.5% agarose, 0.0025 mg/l BAP, 250 mg/l triacillin. • healthy shoots were transferred to 1 liter vessels containing rooting medium which was either A8 or A9; A8 consists of 100-130 ml half concentrated MS, 1% sucrose (pH 5.0), 1 mg/l isobutyric acid (IBA), 100 mg/l triacillin added to 300 ml perlite (final pH 6.2); A9 consists of half concentrated MS, 1.5% sucrose (pH 5.8) solidified with agar (0.6%)

Where [2] appears, read: after 4-5 days of incubation with niacinamide.

As for `NC(=O)c1cccnc1` [niacinamide], in the test on Wheat embryogenic callus (250 mg/l (approx. 2 mM) niacinamide in W2 medium, growth slowed after 4 days, rate after 4 weeks), the “growth of the tissue (rate relative to the normal rate)” value is “approximately 30%”. For the same compound, the “viability of the tissue” value in the test on Wheat embryogenic callus (250 mg/l niacinamide in W2 medium, at least one month) was “remained viable for extended periods of time”. For the same compound, in the test on Wheat embryogenic callus (setting [2]), the “TTC-reducing capacity of the tissue” value is “substantially decreased”. In addition, the “growth after removal of niacinamide from the medium” value in the test on Wheat embryogenic callus (niacinamide subsequently removed from the medium) was “started to grow normally again”. In addition, the “anthocyanin production in tissue culture” value in test [1] (A5 medium containing 250 mg/l niacinamide) is “no anthocyanin was produced”. For the same compound, in test [1] (setting [2]), the “concentration of dehydroascorbate in the explants” value was “drastically decreased” and the “concentration of hydroxyl free radical in the explants” value is “drastically decreased”. The “percentage of cultured cells in G2 phase of the cell cycle” value in test [1] (after a 4 day incubation in niacinamide containing medium, considerably increased) is “up to 45 % of all cells in the culture”.

The record behind these values is US20050014268A1, “Genetic transformation using a PARP inhibitor” (Bayer BioScience NV, priority 1995, published 2005).
